Patent publication US10995363B2, “Nucleotide analogs” (ABBOTT MOLECULAR INC., priority 2013, dated 2021)

Legend:
[1] = target: T1, Therminator II DNA polymerase (Thermococcus sp., UniProt Q56366, A485L/D141A/E143A/Y409V); experiment: Ladder fragment generation with natural dNTPs and one 3′-O-propargyl-dNTP; format: biochemical, Thermococcus sp. 9∘N; details: natural dNTPs plus one 3′-O-propargyl-dNTP, KRAS template, 50 cycles
T1 construct: purchased New England BioLabs
Description: During the development of embodiments of the technology provided herein, experiments were conducted to assess using the nucleotide analogs of the present technology to generate nucleic acid fragments that terminate at base-specific positions. In particular, reaction mixtures were produced and tested that included both natural dNTPs and each of the 3′-O-propargyl-dNTPs individually.
To test the fragment generation by 3′-O-propargyl-dTTP, a DNA fragment generation reaction mix was prepared comprising 20 mM Tris-HCl, 10 mM (NH4)SO4, 10 mM KCl, 2 mM MnCl2, 0.1% Triton X-100, 1000 μmol dATP, 1000 μmol dCTP, 1000 μmol dGTP, 1000 μmol dTTP, 200 μmol 3′-O-propargyl-dTTP, 6.25 μmol of primer R_ke2_trP1_T_bio (SEQ ID NO: 2), and 2 units of THERMINATOR II DNA polymerase (New England BioLabs) in a 25-μl final reaction volume. A volume of 0.5 μmol of the KRAS template (SEQ ID NO: 1) was used as template. The polymerase extension reaction was performed using a temperature cycling profile comprising exposing the reaction to a temperature of 95° C. for 2 minutes followed by 50 cycles of 95° C. for 15 seconds, 55° C. for 25 seconds, and 65° C. for 35 seconds.
(§1) After the polymerase extension reaction, 1 μl of the reaction mix was used directly for nucleic acid size analysis by gel electrophoresis (e.g., using an Agilent 2100 Bioanalyzer and High Sensitivity DNA Assay Chip).
Additional polymerase extension experiments were performed using the reaction conditions described above and replacing the 3′-O-propargyl-dTTP with 3′-O-propargyl-dATP, 3′-O-propargyl-dCTP, or 3′-O-propargyl dGTP.

[2] = target: T1, Therminator II DNA polymerase; experiment: Polymerase extension assay: incorporation of 3′-O-propargyl-dNTP at the 3′ end of a primer on KRAS template; format: biochemical, Thermococcus sp. 9∘N; details: 2 mM MnCl2, KRAS template, 35 cycles, size analysis by gel electrophoresis
Description: During the development of embodiments of the technology provided herein, experiments were conducted to assess the incorporation of 3′-O-propargyl-dNTPs into a nucleic acid by a polymerase. In particular, experiments were conducted to evaluate the accurate incorporation of 3′-O-propargyl-dNTPs into a nucleic acid and to evaluate the terminating activity of the 3′-O-propargyl-dNTPs. To assess these characteristics of the nucleotide analogs provided herein, polymerase extension assays were conducted using a template nucleic acid having a sequence from human KRAS (e.g., KRAS exon 2 and flanking intron sequences) and a complementary primer (Table 2).
To test incorporation of a 3′-O-propargyl-dTTP into a nucleic acid, a polymerase extension reaction mix was assembled comprising 20 mM Tris-HCl, 10 mM (NH4)SO4, 10 mM KCl, 2 mM MnCl2, 0.1% Triton X-100, 200 μmol 3′-O-propargyl-dTTP, 6.25 μmol of primer R_ke2_trP1_T_bio (SEQ ID NO: 2), and 2 units of Therminator II DNA polymerase (New England BioLabs) in a 25-μl final reaction volume. A volume of 0.5 μmol of the KRAS template (SEQ ID NO: 1) was used as template (Table 2). The polymerase extension reaction was performed using a temperature cycling profile comprising exposing the reaction to a temperature of 95° C. for 2 minutes followed by 35 cycles of 95° C. for 15 seconds, 55° C. for 25 seconds, and 65° C. for 35 seconds.
as §1
Additional polymerase extension experiments were performed using the reaction conditions described above and replacing the 3′-O-propargyl-dTTP and the primer R_ke2_trP1_T_bio with 3′-O-propargyl-dATP and the primer R_ke2_trP1_A bio (SEQ ID NO: 3); 3′-O-propargyl-dCTP and the primer R_ke2_trP1_C bio (SEQ ID NO: 5); and 3′-O-propargyl dGTP and the primer R_ke2_trP1_G bio (SEQ ID NO: 4).

T1 sequence (Q56366 whole entry D141A/E143A/Y409V/A485L, the tested form may be a part): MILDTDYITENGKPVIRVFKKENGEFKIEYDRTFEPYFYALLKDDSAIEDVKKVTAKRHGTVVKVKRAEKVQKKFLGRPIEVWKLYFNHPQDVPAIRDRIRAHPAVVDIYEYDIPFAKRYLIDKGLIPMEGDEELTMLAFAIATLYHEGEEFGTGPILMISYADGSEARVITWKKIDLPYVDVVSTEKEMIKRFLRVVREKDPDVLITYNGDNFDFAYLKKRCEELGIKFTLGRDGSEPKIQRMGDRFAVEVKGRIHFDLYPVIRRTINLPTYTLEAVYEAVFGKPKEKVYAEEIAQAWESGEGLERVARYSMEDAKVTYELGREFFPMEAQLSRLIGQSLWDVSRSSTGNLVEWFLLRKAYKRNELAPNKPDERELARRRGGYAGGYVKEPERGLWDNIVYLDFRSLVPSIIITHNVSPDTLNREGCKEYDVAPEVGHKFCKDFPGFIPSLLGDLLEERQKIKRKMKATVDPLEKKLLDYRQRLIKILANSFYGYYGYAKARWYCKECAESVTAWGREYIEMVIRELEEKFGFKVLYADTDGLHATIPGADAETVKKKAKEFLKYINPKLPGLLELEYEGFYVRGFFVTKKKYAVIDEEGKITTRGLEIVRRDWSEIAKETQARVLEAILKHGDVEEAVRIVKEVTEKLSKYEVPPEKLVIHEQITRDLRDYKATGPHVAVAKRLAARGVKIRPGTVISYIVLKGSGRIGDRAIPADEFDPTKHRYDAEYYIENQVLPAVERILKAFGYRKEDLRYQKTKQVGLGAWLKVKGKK

SMILES	generation of nucleic acid fragments terminated at base-specific positions [1]	incorporation at the 3′ end of the primer [2]	amounts of the two populations of nucleic acids (primer length vs primer plus one base) [2]
C#CCO[C@H]1C[C@H](n2cnc3c(N)ncnc32)O[C@@H]1COP(=O)(O)OP(=O)(O)OP(=O)(O)O [3′-O-propargyl-dATP, 3′-O-propargyl-2′-deoxyadenosine-5′-triphosphate]	generated populations of nucleic acid fragments having a range of sizes corresponding to the expected lengths	successful incorporation	
C#CCO[C@H]1C[C@H](n2ccc(N)nc2=O)O[C@@H]1COP(=O)(O)OP(=O)(O)OP(=O)(O)O [3′-O-propargyl-dCTP, 3′-O-propargyl-2′-deoxycytidine-5′-triphosphate]	generated populations of nucleic acid fragments having a range of sizes corresponding to the expected lengths	successful incorporation	
C#CCO[C@H]1C[C@H](n2cc(C)c(=O)[nH]c2=O)O[C@@H]1COP(=O)(O)OP(=O)(O)OP(=O)(O)O [3′-O-propargyl-dTTP, 3′-O-propargyl-2′-deoxythymidine-5′-triphosphate]	generated a population of nucleic acid fragments having a range of sizes corresponding to the expected lengths	successful incorporation	approximately equal
C#CCO[C@H]1C[C@H](n2cnc3c(=O)[nH]c(N)nc32)O[C@@H]1COP(=O)(O)OP(=O)(O)OP(=O)(O)O [3′-O-propargyl-dGTP, 3′-O-propargyl-2′-deoxyguanosine-5′-triphosphate]	generated populations of nucleic acid fragments having a range of sizes corresponding to the expected lengths	successful incorporation	
